Earlier results, collected in PubChem BioAssay AID1259409 (Chemical Carcinogenesis Research Information System (CCRIS), 2018).

Test system: rodent chemically induced tumor inhibition, incidence and multiplicity
Assay: CCRIS tumor inhibitor studies
Conditions: Carcinogen: 4-(METHYLNITROSAMINO)-1-(3-PYRIDYL)-1-BUTANONE, 64091-91-4, Dose [Inhibitor]: 0, Promoter: NONE USED
Source text: The CCRIS database contains chemical records with carcinogenicity, mutagenicity, tumor promotion, and tumor inhibition test results. It was developed by the National Cancer Institute (NCI). Data are derived from studies cited in primary journals, current awareness tools, NCI reports, and other sources. Test results have been reviewed by experts in carcinogenesis and mutagenesis.
CCRIS provides historical information from the years 1985 - 2011. It is no longer updated.
This is an archive assay for CCRIS tumor inhibitor studies.

S=C=NCCCCCCc1ccccc1
tumour outcome (control, treated, inhibition, significance) (1 UMOL 1/D FOR 4 D ADMINISTERED PRIOR TO CARCINOGEN TREATMENT (STUDY DURATION: 116 D), Route [Inhibitor]: GAVAGE, Species: MOUSE, Strain/Sex: STRAIN A, Target Tissue: Type of Lesion: LUNG: ADENOMA, Dose [Carcinogen]: 10 UMOL ONCE 2 HR AFTER FINAL DOSE OF INHIBITOR): 100%, 0%, 100%, p<0.05
tumour outcome (control, treated, inhibition, significance) (5 UMOL 1/D FOR 4 D ADMINISTERED PRIOR TO CARCINOGEN TREATMENT (STUDY DURATION: 116 D), Route [Inhibitor]: GAVAGE, Species: MOUSE, Strain/Sex: STRAIN A, Target Tissue: Type of Lesion: LUNG: ADENOMA, Dose [Carcinogen]: 10 UMOL ONCE 2 HR AFTER FINAL DOSE OF INHIBITOR): 100%, 5%, 95%, p<0.05
tumour outcome (control, treated, inhibition, significance) (0.04 UMOL ONCE 2 HR PRIOR TO CARCINOGEN DOSE (STUDY DURATION: 16 WK), Route [Inhibitor]: GAVAGE, Species: MOUSE, Strain/Sex: STRAIN-A/FEMALE, Target Tissue: Type of Lesion: LUNG: ADENOMA, Dose [Carcinogen]: 10 UMOL IN 0.1 ML SALINE ONCE): 100%, 100%, 0%, not significant
tumour outcome (control, treated, inhibition, significance) (0.1 UMOL ONCE 2 HR PRIOR TO CARCINOGEN DOSE (STUDY DURATION: 16 WK), Route [Inhibitor]: GAVAGE, Species: MOUSE, Strain/Sex: STRAIN-A/FEMALE, Target Tissue: Type of Lesion: LUNG: ADENOMA, Dose [Carcinogen]: 10 UMOL IN 0.1 ML SALINE ONCE): 100%, 100%, 0%, not significant
tumour outcome (control, treated, inhibition, significance) (0.2 UMOL ONCE 2 HR PRIOR TO CARCINOGEN DOSE (STUDY DURATION: 16 WK), Route [Inhibitor]: GAVAGE, Species: MOUSE, Strain/Sex: STRAIN-A/FEMALE, Target Tissue: Type of Lesion: LUNG: ADENOMA, Dose [Carcinogen]: 10 UMOL IN 0.1 ML SALINE ONCE): 100%, 100%, 0%, not significant
tumour outcome (control, treated, inhibition, significance) (1 UMOL/G DIET FOR DURATION OF STUDY BEGINNING 1 WK PRIOR TO CARCINOGEN TREATMENT (STUDY DURATION: 112 WK), Route [Inhibitor]: ORAL, Species: RAT, Strain/Sex: F344/MALE, Target Tissue: Type of Lesion: HEMATOPOIETIC SYSTEM: LEUKEMIA OR LYMPHOMA, Dose [Carcinogen]: 2 PPM IN DRINKING WATER FOR 111 WK): 26/56 (46%), 11/57 (19%), 59%, p=0.002
tumour outcome (control, treated, inhibition, significance) (1 UMOL/G DIET FOR DURATION OF STUDY BEGINNING 1 WK PRIOR TO CARCINOGEN TREATMENT (STUDY DURATION: 112 WK), Route [Inhibitor]: ORAL, Species: RAT, Strain/Sex: F344/MALE, Target Tissue: Type of Lesion: LIVER: ADENOMA, Dose [Carcinogen]: 2 PPM IN DRINKING WATER FOR 111 WK): 2/55 (4%), 4/50 (8%), -100%, not significant
tumour outcome (control, treated, inhibition, significance) (1 UMOL/G DIET FOR DURATION OF STUDY BEGINNING 1 WK PRIOR TO CARCINOGEN TREATMENT (STUDY DURATION: 112 WK), Route [Inhibitor]: ORAL, Species: RAT, Strain/Sex: F344/MALE, Target Tissue: Type of Lesion: LIVER: CARCINOMA, Dose [Carcinogen]: 2 PPM IN DRINKING WATER FOR 111 WK): 3/55 (5%), 1/50 (2%), 60%, not significant
tumour outcome (control, treated, inhibition, significance) (1 UMOL/G DIET FOR DURATION OF STUDY BEGINNING 1 WK PRIOR TO CARCINOGEN TREATMENT (STUDY DURATION: 112 WK), Route [Inhibitor]: ORAL, Species: RAT, Strain/Sex: F344/MALE, Target Tissue: Type of Lesion: LUNG: ADENOCARCINOMA, Dose [Carcinogen]: 2 PPM IN DRINKING WATER FOR 111 WK): 23/56 (41%), 9/57 (16%), 61%, p=0.003
tumour outcome (control, treated, inhibition, significance) (1 UMOL/G DIET FOR DURATION OF STUDY BEGINNING 1 WK PRIOR TO CARCINOGEN TREATMENT (STUDY DURATION: 112 WK), Route [Inhibitor]: ORAL, Species: RAT, Strain/Sex: F344/MALE, Target Tissue: Type of Lesion: LUNG: ADENOMA, Dose [Carcinogen]: 2 PPM IN DRINKING WATER FOR 111 WK): 16/56 (29%), 6/57 (11%), 62%, p=0.015
tumour outcome (control, treated, inhibition, significance) (1 UMOL/G DIET FOR DURATION OF STUDY BEGINNING 1 WK PRIOR TO CARCINOGEN TREATMENT (STUDY DURATION: 112 WK), Route [Inhibitor]: ORAL, Species: RAT, Strain/Sex: F344/MALE, Target Tissue: Type of Lesion: NASAL CAVITY: PAPILLOMA OR CARCINOMA, Dose [Carcinogen]: 2 PPM IN DRINKING WATER FOR 111 WK): 1/48 (2%), 2/45 (4%), -100%, not significant
